How the values were obtained:
[1] = test system: virulent Peronospora isolate Noco2; experiment: Noco2 spore inhibition assay in soil-grown Col-0 seedlings; assay type: in vivo, Hyaloperonospora arabidopsidis (Peronospora)
Experimental: FIG. 1. Phenyl-imino-methyl-phenol derivatives (PMPs) constitute a large class of new synthetic elicitors. A: Structures of 20 PMP derivatives that were identified by high throughput screening as able to promote expression with the CaBP22 reporter assay. B. CMP199 was further analyzed in the Noco2 spore inhibition assay. Three-week-old soil-grown Col-0 seedlings were spray-infected 24 h after treating with varying concentrations of each synthetic elicitor and then assayed at 7 dpi for spore growth. 100% inhibition=0 spores. The assay was repeated three times with similar results, and the average of those three replicates is shown. DCA=3-5-dicholoroanthranlilic acid; HTC=2-(5-bromo-2-hydroxy-phenyl)-thiazolidine-4-carboxylic acid.
CMP199 (FIG. 1A) was selected for further study to determine whether CMP199 could induce pathogen resistance in soil-grown plants. […] To determine if CMP199 differs from other synthetic elicitors, Col-0 seedlings were treated with DCA or HTC at the indicated concentrations and compared.

[2] = test system: pathogen-responsive CaBP22^−333::GUS reporter gene; conditions: transgenic Arabidopsis; reported in Knoth et al. (2009); cited from earlier work
[3] = test system: Hyaloperonospora arabidopsidis (Peronospora); conditions: Arabidopsis; Knoth et al. (2009); cited from earlier work
[4] = test system: Pseudomonas syringae; conditions: Arabidopsis; Knoth et al. (2009); cited from earlier work

SMILES	induction of disease resistance ([1]; A. thaliana)	inhibition of Noco2 spores, concentration compared with other synthetic elicitors ([1]; Col-0 seedlings, spray-infected 24 h after treating, assayed at 7 dpi, FIG. 1B)	concentration giving significantly reduced numbers of Noco2 spores ([1]; Col-0 sprayed prior to infection, spores 7 days post infection) [µM]	induction of pCaBP22^−333::GUS reporter gene [2]	disease resistance triggered [3]	disease resistance triggered [4]
COc1cccc(N=Cc2cc(Cl)cc(Cl)c2O)c1 [CMP199, 2,4-dichloro-6-[((3-methoxy-phenyl)imino)methyl]-phenol]	able to induce disease resistance in A. thaliana at very low concentration	much lower concentration than DCA or HTC	≤ 1	–	–	–
Nc1c(Cl)cc(Cl)cc1C(=O)O [DCA, 3-5-dicholoroanthranlilic acid]	–	–	–	induce	fast, strong and transient disease resistance	fast, strong and transient disease resistance
